Source: ChEMBL document CHEMBL1759905, “Nonsteroidal 2,3-dihydroquinoline glucocorticoid receptor agonists with reduced PEPCK activation” (Bioorg Med Chem Lett, 2011)

Key:
[1] = target: T1, Mineralocorticoid receptor (Homo sapiens, UniProt P08235); assay: Binding affinity to mineralocorticoid receptor
T1 sequence (P08235 whole entry): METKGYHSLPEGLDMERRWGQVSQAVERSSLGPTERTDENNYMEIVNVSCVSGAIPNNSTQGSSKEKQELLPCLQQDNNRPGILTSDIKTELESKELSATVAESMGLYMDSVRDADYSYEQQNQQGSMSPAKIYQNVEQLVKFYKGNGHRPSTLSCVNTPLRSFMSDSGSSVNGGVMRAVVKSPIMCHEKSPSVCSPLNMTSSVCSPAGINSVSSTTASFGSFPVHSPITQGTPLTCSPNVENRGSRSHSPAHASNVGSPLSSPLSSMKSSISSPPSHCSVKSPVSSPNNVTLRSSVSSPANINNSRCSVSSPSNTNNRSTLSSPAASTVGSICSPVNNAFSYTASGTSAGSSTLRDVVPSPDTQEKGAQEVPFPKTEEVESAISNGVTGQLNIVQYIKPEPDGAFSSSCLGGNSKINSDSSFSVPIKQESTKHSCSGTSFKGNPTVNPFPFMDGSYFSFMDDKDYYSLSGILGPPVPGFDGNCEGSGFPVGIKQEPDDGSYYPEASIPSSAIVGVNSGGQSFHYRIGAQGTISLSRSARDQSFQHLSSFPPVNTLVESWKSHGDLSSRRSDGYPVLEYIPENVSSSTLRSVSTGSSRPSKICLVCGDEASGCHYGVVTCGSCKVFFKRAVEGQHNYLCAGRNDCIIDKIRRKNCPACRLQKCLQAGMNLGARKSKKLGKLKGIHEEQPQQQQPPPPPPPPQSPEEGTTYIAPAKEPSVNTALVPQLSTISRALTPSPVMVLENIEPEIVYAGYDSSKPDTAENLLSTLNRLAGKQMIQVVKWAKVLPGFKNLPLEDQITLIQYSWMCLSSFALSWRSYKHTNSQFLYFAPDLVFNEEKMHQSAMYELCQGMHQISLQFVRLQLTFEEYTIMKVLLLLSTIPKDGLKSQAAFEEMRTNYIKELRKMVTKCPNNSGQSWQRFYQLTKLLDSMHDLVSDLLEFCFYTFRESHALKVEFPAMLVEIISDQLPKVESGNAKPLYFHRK

[2] = target: T2, Glucocorticoid receptor (Homo sapiens) (UniProt P04150); assay: Transrepression activity at glucocorticoid receptor in human HepG2 cells assessed as inhibition of TNFalpha/IL1beta-stimulated NFkappaB-dependent E-selectin repression by luciferase reporter gene assay relative to Dexamethasone; format: cell-based; parameters: scale not given: the % may be the effect or the level left
T2 sequence (whole entry): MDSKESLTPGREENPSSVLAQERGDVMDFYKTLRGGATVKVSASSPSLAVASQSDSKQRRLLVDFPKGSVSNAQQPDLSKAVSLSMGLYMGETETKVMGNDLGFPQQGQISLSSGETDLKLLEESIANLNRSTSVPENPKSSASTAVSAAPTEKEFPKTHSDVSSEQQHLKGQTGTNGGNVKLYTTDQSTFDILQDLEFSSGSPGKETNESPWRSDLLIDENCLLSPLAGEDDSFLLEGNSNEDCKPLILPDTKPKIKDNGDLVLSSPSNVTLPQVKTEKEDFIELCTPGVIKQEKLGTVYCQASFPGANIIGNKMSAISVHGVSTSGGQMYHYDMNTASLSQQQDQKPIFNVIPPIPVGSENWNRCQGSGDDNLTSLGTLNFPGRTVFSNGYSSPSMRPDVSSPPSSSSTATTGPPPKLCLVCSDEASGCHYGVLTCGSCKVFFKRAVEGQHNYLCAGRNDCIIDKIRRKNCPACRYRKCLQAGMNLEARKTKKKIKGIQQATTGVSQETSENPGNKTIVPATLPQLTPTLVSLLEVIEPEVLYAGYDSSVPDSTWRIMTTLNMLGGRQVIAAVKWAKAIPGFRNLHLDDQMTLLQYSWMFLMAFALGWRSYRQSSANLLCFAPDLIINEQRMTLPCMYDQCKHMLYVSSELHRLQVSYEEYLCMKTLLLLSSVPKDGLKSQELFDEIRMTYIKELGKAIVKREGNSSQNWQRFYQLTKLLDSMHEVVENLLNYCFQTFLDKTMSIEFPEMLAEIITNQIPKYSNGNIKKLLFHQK

Glucocorticoid receptor [3] = target: T3, Glucocorticoid receptor (Homo sapiens, UniProt P04150); assay: Transrepression activity at glucocorticoid receptor in human HepG2 cells assessed as inhibition of TNFalpha/IL1beta-stimulated NFkappaB-dependent E-selectin repression by luciferase reporter gene assay; format: cell-based
T3 sequence (P04150 whole entry): T2 sequence (whole entry)

[4] = target: T2, Glucocorticoid receptor (Homo sapiens); assay: Agonist activity at glucocorticoid receptor in human HepG2 cells co-transfected with GRE assessed as GRE activation by luciferase reporter gene assay relative to Dexamethasone; format: functional, cell-based; parameters: concentration or dose not given beside the values
Glucocorticoid receptor [5] = target: T3, Glucocorticoid receptor; assay: Displacement of radiolabeled Dexamethasone from glucocorticoid receptor expressed in baculovirus
Glucocorticoid receptor [6] = target: T3, Glucocorticoid receptor; assay: Transrepression activity at glucocorticoid receptor in human NHDF cells assessed as inhibition of IL-1beta-stimulated AP1 dependent IL-6 repression by ELISA; format: cell-based
[7] = target: T2, Glucocorticoid receptor (Homo sapiens); assay: Transrepression activity at glucocorticoid receptor in human NHDF cells assessed as inhibition of IL-1beta-stimulated AP1 dependent IL-6 repression by ELISA relative to Dexamethasone; format: cell-based; parameters: concentration or dose not given beside the values
Androgen receptor = target: T4, Androgen receptor (Homo sapiens, UniProt P10275); assay: Binding affinity to androgen receptor
T4 sequence (P10275 whole entry): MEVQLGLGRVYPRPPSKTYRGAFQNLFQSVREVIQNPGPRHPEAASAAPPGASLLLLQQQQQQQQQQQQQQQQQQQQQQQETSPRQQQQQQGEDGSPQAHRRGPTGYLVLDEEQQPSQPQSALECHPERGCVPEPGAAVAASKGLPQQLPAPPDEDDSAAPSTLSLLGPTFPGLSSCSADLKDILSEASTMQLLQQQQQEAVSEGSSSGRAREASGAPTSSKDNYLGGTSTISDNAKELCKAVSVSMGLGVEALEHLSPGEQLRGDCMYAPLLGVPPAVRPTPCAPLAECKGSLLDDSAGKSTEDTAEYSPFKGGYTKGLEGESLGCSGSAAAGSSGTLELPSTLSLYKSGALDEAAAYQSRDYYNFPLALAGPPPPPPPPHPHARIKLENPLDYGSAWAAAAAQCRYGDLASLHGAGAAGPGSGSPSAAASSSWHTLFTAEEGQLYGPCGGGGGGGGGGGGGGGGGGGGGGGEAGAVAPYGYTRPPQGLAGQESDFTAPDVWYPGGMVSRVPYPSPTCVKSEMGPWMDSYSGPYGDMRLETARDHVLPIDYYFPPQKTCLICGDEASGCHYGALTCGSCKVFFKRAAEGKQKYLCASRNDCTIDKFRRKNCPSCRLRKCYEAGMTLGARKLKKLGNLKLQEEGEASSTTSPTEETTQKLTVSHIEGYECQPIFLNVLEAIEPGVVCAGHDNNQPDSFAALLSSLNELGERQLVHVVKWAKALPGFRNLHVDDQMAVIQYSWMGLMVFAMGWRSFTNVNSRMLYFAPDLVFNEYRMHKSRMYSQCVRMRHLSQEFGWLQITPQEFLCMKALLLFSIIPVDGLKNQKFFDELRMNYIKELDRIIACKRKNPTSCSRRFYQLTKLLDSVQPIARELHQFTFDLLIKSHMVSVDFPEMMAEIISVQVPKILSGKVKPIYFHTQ

Row | Ki [1] [nM] | Activity [2] [%] | IC50 (Glucocorticoid receptor [3]) [nM] | Activity [4] [%] | Ki (Glucocorticoid receptor [5]) [nM] | IC50 (Glucocorticoid receptor [6]) [nM] | Activity [7] [%] | Ki (Androgen receptor) [nM] | SMILES
1 | 1600 | 91 | 5.6 | 97 | 2.2 | 13 | 73 | 1000 | Cc1c[nH]c2c(-c3c(F)cc4c(c3F)/C(=N/OC(C)(C)C)CC(C)(C)N4)cccc12
2 | 1040 | 94 | 4 | 97 | 2 | 19 | 83 | 90 | CC1(C)C/C(=N\OC(C)(C)C)c2c(cc(F)c(-c3cccc4c(Cl)c[nH]c34)c2F)N1
3 | 2700 | 91 | 12 | 130 | 0.8 | 65 | 67 | 290 | Cc1c[nH]c2c(-c3c(F)cc4c(c3F)/C(=N/OC(C)(C)CO)CC(C)(C)N4)cccc12
4 | 1700 | 96 | 3.4 | 150 | 3.8 | 17 | 98 | 2800 | CO/N=C1/c2c(cc(F)c(-c3cccc4c(C)c[nH]c34)c2F)NC(C)(C)C1O (racemic)
5 | 2800 | 90 | 4.9 | 138 | 2.7 | 11 | 77 | 1500 | Cc1c[nH]c2c(-c3c(F)cc4c(c3F)/C(=N/OC(C)C)CC(C)(C)N4)cccc12
